Test results reported in US4552895A, “Furo[3,2-b]furan-2-(3H)-ones” (Eli Lilly and Company, priority 1983, dated 1985).

Assays:
[1] = system: angiogenesis factor; assay: Tumor angiogenesis inhibition in vivo: serpentine vessels induced by lysosomal-mitochondrial preparation from 3683 Morris hepatoma in mice; set-up: species or system mice (SPF/ND4 female); conditions: Mus musculus, ip, mice sacrificed after 24 hours, average number of serpentine vessels vs control
Method: Lysosomal-mitochondrial pellets containing angiogenesis factor are prepared from 3683 Morris hepatoma. The pellet is diluted with 7-8 ml. of 15% ficoll. At this dilution, 8-10 serpentine vessels are usually produced per 0.2 cc. injection as described below for the control group.
Next, 15 SPF/ND4 female mice weighing 20-22 g. are shaved on the left side and then divided into three groupss of five each. One group (drug group) is injected subcutaneously and laterally with 0.2 cc. of the lysosomal-mitochondrial preparation diluted with 15% ficoll. This group of mice is then dosed individually by the intraperitoneal route with 0.5 cc. of a solution or suspension in a standard vehicle containing the compound under test, usually at an initial dose level of 300 mg./kg. If this dose level is toxic, two-fold dilutions are made until all mice survive a single dose. The second group of mice (control group) is injected subcutaneously and laterally with 0.2 cc. of the lysosomal-mitochondrial suspension diluted with ficoll and dosed intraperitoneally with 0.5 cc. of the vehicle alone. The third group of mice (negative control) is injected with the ficoll solution only (without the lysosomal-mitochondrial pellet) without treatment with compound or vehicle. The mice are sacrificed after 24 hours. Each mouse is placed on its side on a dissecting board with the shaved side up. Starting at the flank, the skin is cut straight to the back of the animal. A similar cut is made behind the front leg. The skin is then cut along the back making a flap of about one inch by two inches. The skin is carefully separated from the connective tissue by using forceps and a scalpel. The skin flap is then laid back exposing the lysosomal-mitochondrial implant which is attached to the skin. The skin flap is gently flattened out and with the use of a binocular dissecting scope, serpentine vessels are observed around the lysosomal-mitochondrial implant and their number counted. All observations of the number of serpentine vessels are made at the same power of the microscope (1×). The average number of serpentine vessels for each group is calculated. The percent inhibition is then calculated according to the following equation. [formula] where sv=averge number of serpentine vessels.
If the negative control group described above has any serpentine vessels, the test is invalid due to contamination of the ficoll solution.

[2] = system: Collagen-Induced Arthritis; assay: Collagen-induced arthritis assay (type II collagen, hindpaw volume) in rats; type: in vivo, inbred Lewis male rats; conditions: oral gavage 5 days per week from day 1 to day 28 or 30
Method: This test method is a collagen arthritis assay carried out as follows.
Type II collagen is isolated from bovine articular cartilage by the method of Strawich and Nimni [Biochemistry, 10, 3905 (1971)]. The collagen is dissolved in 0.1M acetic acid and stored at -20° C. Type II collagen solution is diluted to 2 mg./ml. concentration and emulsified thoroughly with an equal volume of incomplete Freund's adjuvant (ICFA). The emulsion containing approximately 0.5 mg. of collagen is injected intradermally on day 0 to groups of 6 inbred Lewis male rats (Charles River Breeders; 170-200 g.) at various sites in the dorsal area. The hindpaw volumes of each rat are measured and recorded three times a week throughout the test period to assess the inflammatory reaction. The test group animals receive compounds under test as suspensions in carboxymethylcellulose vehicle, by oral gavage, 5 days per week (Monday-Friday), beginning on day 1. Control animals receive vehicle without a test compound. At the end of the test (day 28 or 30), the blood of these animals is drawn by cardiac puncture and the serum anti-type II collagen antibody levels are estimated by passive hemagglutination technique, using glutaraldehyde treated sheep red cells, to which type II collagen is conjugated [Avrameas et al., Immunochemistry, 6, 67 (1969); Andriopoulos et al., Arth. Rheum., 19, 613 (1976)]. The cellular response or delayed-type hypersensitivity response to type II collagen is measured by the radiometric ear index assay [Kostiala, Immunology, 33, 561 (1977)]. In certain experiments, the bone damage occurring because of immunization with type II collagen and the effects of drugs are determined from the radiographs of the hindpaws of two or three representative animals from each group. Injections of ICFA without collagen II were employed to some rats as a negative control; these rats received only […] vehicle during the test.
The % inhibition is calculated according to the following formula: [formula] where Vt is the hindpaw volume of a compound-treated animal (test group), Vc is the hindpaw volume of a non-compound-treated animal ([…] vehicle only-the control group), the Vv is the hindpaw volume of a vehicle ([…]) treated animal which received ICFA with no collagen II (negative control group).

| SMILES | inhibition in vivo at 25 mg/kg [1] [%] | Inhibition of Collagen-Induced Arthritis, % inhibition ([2]; 15 mg./kg.) [%] | Inhibition of Collagen-Induced Arthritis, % inhibition ([2]; 25 mg./kg.) [%] |
| --- | --- | --- | --- |
| O=C1OC2C(O)COC2(O)C1(O)Cc1ccc(Cl)cc1 (stereo not drawn) [Example 5] | 52 | 81 |  |
| Cc1ccccc1CC1(O)C(=O)OC2C(O)COC21O (stereo not drawn) [Example 10] | 48 |  |  |
| Cc1ccc(CC2(O)C(=O)OC3C(O)COC32O)cc1 (stereo not drawn) [Example 11] | 62 | 94 |  |
| O=C1OC2C(O)COC2(O)C1(O)Cc1cccc(F)c1 (stereo not drawn) [Example 7] | 57 |  | 100 |
| O=C1OC2C(O)COC2(O)C1(O)Cc1ccc(C(F)(F)F)cc1 (stereo not drawn) [Example 8] | 55 |  |  |
| O=C1OC2C(O)COC2(O)C1(O)Cc1ccccc1Cl (stereo not drawn) [Example 4] | 38 |  |  |
| O=C1OC2C(O)COC2(O)C1(O)Cc1ccccc1F (stereo not drawn) [Example 6] | 33 |  |  |
| O=C1OC2C(O)COC2(O)C1(O)Cc1cccc(Cl)c1 (stereo not drawn) [Example 3] | 55 | 100 |  |
| Cc1ccc(C)c(CC2(O)C(=O)OC3C(O)COC32O)c1 (stereo not drawn) [Example 12] | 58 |  | 23 |
| O=C1OC2C(O)COC2(O)C1(O)Cc1cccc(Br)c1 (stereo not drawn) [Example 2] | 45 |  |  |
| Cc1cccc(CC2(O)C(=O)OC3C(O)COC32O)c1 (stereo not drawn) [Example 9] | 48 |  |  |
| O=C1OC2C(O)COC2(O)C1(O)Cc1ccc(F)cc1 (stereo not drawn) [Example 1, [3R-(3aα,6α,6aα)]-tetrahydro-3,3a,6-trihydroxy-3-[(4-fluorophenyl)methyl]furo[3,2-b]furan-2(3H)-one] | 62 |  | 94 |
